# Values quoted from earlier work as cited in patent US11439638B1, “Drug and diagnostic combination system to identify and treat single-stranded RNA viruses including coronaviruses” (priority 2021, dated 2022).
# Assays:
# [1] = system: influenza viruses, arenaviruses, bunyaviruses, and filoviruses
# SARS-CoV-2 = conditions: mammalian cells, in vitro
Compound,effectiveness against viruses [1],inhibition of dengue virus (dengue virus),inhibition of yellow fever virus (yellow fever virus),replication of SARS-CoV-2 (SARS-CoV-2)
"NC(=O)c1nc(F)c[nH]c1=O [Favipiravir, favipiravir]",effective,–,–,–
NC(=O)c1nc(F)cn([C@@H]2O[C@H](COP(=O)(O)OP(=O)(O)OP(=O)(O)O)[C@@H](O)[C@H]2O)c1=O [favipiravir-RTP],effective,–,–,–
ivermectin,–,inhibit,inhibit,slow replication
